For test [1], the system named is a-TC8 (amino, on DynaEpoxy) (DNA, aptamer) CGGTGGTG
The test is described as follows: bead capture, HPLC. The conditions noted are these: room temperature, 1 h; capture significantly higher than nonsense aptamer.

The test system of test [2] is a-TC40 (amino, on DynaEpoxy) (DNA, aptamer) GTTTGTGTATTACAGTTATGTTACCCTCATTTTTCTGAAC
As to the kind of experiment: bead capture, HPLC. The conditions noted are these: room temperature, 1 h; capture significantly higher than nonsense aptamer.

The test system of test [3] is a-TCmu (biotinylated, on DynaSA) (RNA, aptamer) GGGCCUAAAACAUACCAGAUCGCCACCCGCGCUUUAAUCUGGAGAGGUGAAGAAUACGACCACCUAGGCUC
The test is described as follows: bead capture, HPLC. The conditions noted are these: room temperature, 1 h; eluted with 2 M NaCl and 80 °C.

In test [4] the test system is a-TC40 (DNA, aptamer) GTTTGTGTATTACAGTTATGTTACCCTCATTTTTCTGAAC
The test is described as follows: equilibrium filtration, HPLC. The conditions noted are these: 100 mM NaCl, 5 mM KCl, 2 mM MgCl2, 1 mM CaCl2; 20 mM Tris/HCl pH 7.6 (binding buffer listed for TC); filter leakage 0.53.

Test [5] has as its system a-TC76 (DNA, aptamer) CGTACGGAATTCGCTAGCCCCCCGGCAGGCCACGGCTTGGGTTGGTCCCACTGCGCGTGGATCCGAGCTCCACGTG
As to the kind of experiment: equilibrium filtration, HPLC. The conditions noted are these: 100 mM NaCl, 5 mM KCl, 2 mM MgCl2, 1 mM CaCl2; 20 mM Tris/HCl pH 7.6 (binding buffer listed for TC).

Test [6] concerns a-TCmu (RNA, aptamer) GGGCCUAAAACAUACCAGAUCGCCACCCGCGCUUUAAUCUGGAGAGGUGAAGAAUACGACCACCUAGGCUC
As to the kind of experiment: equilibrium filtration, HPLC. The conditions noted are these: Na+ 100 mM; Mg2+ 10 mM; K+ (20 mM potassium phosphate buffer); 20 mM potassium phosphate pH 7.5 (presumed).

The test system is the same in test [7]. The test is described as follows: fluorescence titration (intrinsic tetracycline fluorescence). The conditions noted are these: 100 mM NaCl, 10 mM MgCl2; 20 mM potassium phosphate pH 7.5, 25 °C; fluorescence yield up about 12 times.
Test [8] concerns a-SMZ-b (on DynaSA) (DNA, aptamer) TTAGCTTATGCGTTGGCCGGGATAAGGATCCAGCCGTTGTAGATTTGCGTTCTAACTCTC
The test is described as follows: bead capture, HPLC. The conditions noted are these: room temperature, 1 h; around 2% captured, no elution, data not shown.

The test system of test [9] is a-SMZ (DNA, aptamer) TTAGCTTATGCGTTGGCCGGGATAAGGATCCAGCCGTTGTAGATTTGCGTTCTAACTCTC
As to the kind of experiment: equilibrium filtration, HPLC. The conditions noted are these: 100 mM NaCl, 5 mM KCl, 2 mM MgCl2, 1 mM CaCl2; 20 mM Tris/HCl pH 7.6 (binding buffer listed for SMZ); highest aptamer 2.5 µM.

The subject of test [10] is a-SDM (DNA, aptamer) GAGGGCAACGAGTGTTTATAGA
The test is described as follows: equilibrium filtration (3 kD filter), HPLC. The conditions noted are these: 50 mM NaCl, 5 mM KCl, 5 mM MgCl2; 20 mM Tris/HCl pH 8 (BBSDM).

On to `CN(C)[C@@H]1C(=O)C(C(N)=O)=C(O)[C@@]2(O)C(=O)C3=C(O)c4c(O)cccc4[C@@](C)(O)[C@H]3C[C@@H]12`, for which the binding entry in test [1], in [2] and in test [3] was “yes” each time. For the same compound, the k in [4] is 100 nM; in [5], 14 µM; in test [6], 64 nM; in test [7], ~ 60 nM.
Take `Cc1cc(C)nc(NS(=O)(=O)c2ccc(N)cc2)n1`: in test [8], the binding result is “weak”. Also, the k in [9] is on record as more than 2.5 µM.
Consider `COc1cc(NS(=O)(=O)c2ccc(N)cc2)nc(OC)n1`, for which, in test [10], the binding entry was “no”.
